Laboratory results published in patent US20070048358A1, “Antimicrobial substrates” (priority 2005, published 2007).

Test system: Staphylococcus aureus (ATCC #27660)
Assay: Rapid Germicidal Time Kill on treated gloves
Format: cell-based
Conditions: for log reduction of organisms: nitrile gloves, versus applied organisms estimated from latex control
Method: We applied an inoculum of a known amount of microbes to the antimicrobial-treated surface of a glove. After about 3-6 minutes, we assessed the number of microbes that remained on the surface of the treated glove. […] Table 2 reports the relative efficacy of killing after contact with the coated glove. The concentration of organisms on the surface is given at an initial Zero Time point and at 3, 5, and 30 minute points. […] To test the antimicrobial efficacy of a polyhexamethylene biguanide, we treated nitrile examination gloves according to ASTM protocol 04-123409-106 “Rapid Germicidal Time Kill.” In brief, about 50 μL of an overnight culture of Staphylococcus aureus (ATCC #27660, 5×10^8 CFU/mL) was applied to the glove material. After a total contact time of about 6 minutes the glove fabric was placed into a neutralizing buffer. Surviving organisms were extracted and diluted in Letheen broth. Aliquots were spread plated on Tryptic Soy Agar plates. Plates were incubated for 48 hours at 35° C. Following incubation the surviving organisms were counted and the colony forming units (CFU) were recorded. The reduction (log10) in surviving organisms from test material versus control fabric was calculated: Log10 CFU/swatch Control−Log10 CFU/swatch Test Article=Log10 Reduction.

Polyhexamethylene biguanide (PHMB)
log reduction of Staphylococcus aureus ATCC 27660 (microtextured nitrile glove, machine applied at 0.03 g/glove): greater than four log reduction
log reduction of organisms (hand sprayed with no heat): greater than one log reduction
log reduction of organisms (machine sprayed under heated conditions): greater than 5 log
